Data: patent US9605022B2, “Macrocyclic compounds for inhibition of inhibitors of apoptosis” (Ensemble Therapeutics Corporation, priority 2012, dated 2017)

Legend:
[1] = target: XIAP BIR2-3 (His-BIR2-3 (125-356, C202A/C213G, XIAP)) (Homo sapiens (Human), UniProt P98170, C202A/C213G); assay: XIAP-BIR2-3 Dimeric SMAC Peptide Homogeneous Time Resolved Fluorescence (HTRF) Assay; type: binding; settings: 0.5 nM N-His-BIR2-3, 20 nM fluorescein labeled dimeric SMAC peptide; read-out: XIAP BIR2-3 FRET IC50
Chain of XIAP BIR2-3 (His-BIR2-3 (125-356, C202A/C213G, XIAP)) (P98170 125-356 C202A/C213G): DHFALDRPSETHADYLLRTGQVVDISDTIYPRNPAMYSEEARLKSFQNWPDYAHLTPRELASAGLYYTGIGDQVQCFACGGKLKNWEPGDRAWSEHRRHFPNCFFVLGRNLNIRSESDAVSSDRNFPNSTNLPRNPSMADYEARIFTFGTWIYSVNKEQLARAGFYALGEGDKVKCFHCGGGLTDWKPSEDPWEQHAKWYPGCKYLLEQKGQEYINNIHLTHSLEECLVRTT

[2] = target: XIAP BIR3 (His-BIR3 (241-356, XIAP)) (Homo sapiens (Human), UniProt P98170); assay: XIAP-BIR3/SMAC Homogeneous Time Resolved Fluorescence (HTRF) Assay; type: binding; settings: 1 nM N-His-BIR3, 5 nM fluorescein labeled SMAC peptide; read-out: XIAP BIR3 FRET IC50
Chain of XIAP BIR3 (His-BIR3 (241-356, XIAP)) (P98170 241-356): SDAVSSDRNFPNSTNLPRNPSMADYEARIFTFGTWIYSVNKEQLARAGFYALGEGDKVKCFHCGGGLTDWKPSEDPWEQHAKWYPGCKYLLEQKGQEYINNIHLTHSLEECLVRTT

SMILES | IC50 [1] | IC50 [2]
CN[C@@H](C)C(=O)N[C@H](C(=O)N1CC[C@@H]2[C@H]1C(=O)N[C@@H](Cc1ccc3ccccc3c1)C(=O)N[C@H](C(=O)O)Cc1ccc(cc1)OCc1cn(nn1)[C@@H]1CCN(C(=O)[C@@H](NC(=O)[C@H](C)NC)C(C)(C)C)[C@@H]1C(=O)N[C@@H](Cc1ccc3ccccc3c1)C(=O)N[C@H](c1nc(=O)o[nH]1)Cc1ccc(cc1)OCc1cn2nn1)C(C)(C)C [Example 20] | 2.9 nM | 10.1 nM
CN[C@@H](C)C(=O)N[C@H](C(=O)N1CC[C@@H]2[C@H]1C(=O)NC(=O)C[C@@H](Cc1ccc3ccccc3c1)C(=O)N[C@H](C(=O)O)Cc1ccc(cc1)OCc1cn(nn1)[C@@H]1CCN(C(=O)[C@@H](NC(=O)[C@H](C)NC)C(C)(C)C)[C@@H]1C(=O)N[C@@H](Cc1ccc3ccccc3c1)C(=O)N[C@H](c1n[nH]c(=O)o1)Cc1ccc(cc1)OCc1cn2nn1)C(C)(C)C [Example 14] | 1.3 nM | 8.6 nM
CN[C@@H](C)C(=O)N[C@H](C(=O)N1CC[C@H]2OCc3cn(nn3)[C@H](C(=O)O)CCNC(=O)[C@H](Cc3ccc4ccccc4c3)NC(=O)[C@@H]3[C@@H](CCN3C(=O)[C@@H](NC(=O)[C@H](C)NC)C(C)(C)C)OCc3cn(nn3)[C@H](C(=O)O)CCNC(=O)[C@H](Cc3ccc4ccccc4c3)NC(=O)[C@H]21)C(C)(C)C [Example 4] | 1.6 nM | 57.8 nM
CN[C@@H](C)C(=O)N[C@H](C(=O)N1CC[C@@H]2[C@H]1C(=O)N[C@@H](Cc1ccc3ccccc3c1)C(=O)N[C@H](C(=O)O)Cc1ccc(cc1)OCc1cn(nn1)[C@@H]1CCN(C(=O)[C@@H](NC(=O)[C@H](C)NC)C(C)(C)C)[C@@H]1C(=O)N[C@@H](Cc1ccc3ccccc3c1)C(=O)N[C@H](C(=O)NS(=O)(=O)c1ccccn1)Cc1ccc(cc1)OCc1cn2nn1)C(C)(C)C [Example 10] | 16.9 nM | 63.1 nM
CN[C@@H](C)C(=O)N[C@H](C(=O)N1CC[C@H]2OCc3cn(nn3)CCC[C@H](C(=O)O)NC(=O)[C@H](Cc3ccc4ccccc4c3)NC(=O)[C@@H]3[C@@H](CCN3C(=O)[C@@H](NC(=O)[C@H](C)NC)C(C)(C)C)OCc3cn(nn3)CCC[C@H](C(=O)O)NC(=O)[C@H](Cc3ccc4ccccc4c3)NC(=O)[C@H]21)C(C)(C)C [Example 3] | 0.8 nM | 1.9 nM
CN[C@@H](C)C(=O)N[C@H](C(=O)N1CC[C@@H]2[C@H]1C(=O)N[C@@H](Cc1ccc3ccccc3c1)C(=O)N[C@H](C(=O)O)Cc1ccc(cc1)OCc1cn(nn1)[C@@H]1CCN(C(=O)[C@@H](NC(=O)[C@H](C)NC)C(C)(C)C)[C@@H]1C(=O)N[C@@H](Cc1ccc3ccccc3c1)C(=O)N[C@H](c1nnn[nH]1)Cc1ccc(cc1)OCc1cn2nn1)C(C)(C)C (single isomer, unassigned) [Example 15] | 0.3 nM | 1.9 nM
CN[C@@H](C)C(=O)N[C@H](C(=O)N1CC[C@@H]2[C@H]1[C@@H](Cc1ccc3ccccc3c1)C(=O)N[C@H](C(=O)O)Cc1ccc(cc1)OCc1cn(nn1)[C@@H]1CCN(C(=O)[C@@H](NC(=O)[C@H](C)NC)C(C)(C)C)[C@@H]1C(=O)C[C@@H](Cc1ccc3ccccc3c1)C(=O)N[C@H](C(=O)OC)Cc1ccc(cc1)OCc1cn2nn1)C(C)(C)C [Example 7] | 6.5 nM | 29 nM
CN[C@@H](C)C(=O)N[C@H](C(=O)N1CC[C@@H]2[C@H]1C(=O)N[C@@H](Cc1ccc3ccccc3c1)C(=O)N[C@H](C(=O)O)Cc1ccc(cc1)OCc1cn(nn1)[C@@H]1CCN(C(=O)[C@@H](NC(=O)[C@H](C)NC)C(C)(C)C)[C@@H]1C(=O)N[C@@H](Cc1ccc3ccccc3c1)C(=O)N[C@H](C(=O)NS(=O)(=O)C1CC1)Cc1ccc(cc1)OCc1cn2nn1)C(C)(C)C [Example 11] | 1.3 nM | 10.3 nM
CN[C@@H](C)C(=O)N[C@H](C(=O)N1CC[C@@H]2[C@H]1C(=O)N[C@@H](Cc1ccc3ccccc3c1)C(=O)N[C@H](C(=O)O)Cc1ccc(cc1)OCc1cn(nn1)[C@@H]1CCN(C(=O)[C@@H](NC(=O)[C@H](C)NC)C(C)(C)C)[C@@H]1C(=O)N[C@@H](Cc1ccc3ccccc3c1)C(=O)N[C@H](c1nc(=O)o[nH]1)Cc1ccc(cc1)OCc1cn2nn1)C(C)(C)C [Example 19] | 0.4 nM | 2 nM
CN[C@@H](C)C(=O)N[C@H](C(=O)N1CC[C@@H]2[C@H]1C(=O)N[C@@H](Cc1ccc3ccccc3c1)C(=O)N[C@H](C(=O)O)Cc1ccc(cc1)OCc1cn(nn1)[C@@H]1CCN(C(=O)[C@@H](NC(=O)[C@H](C)NC)C(C)(C)C)[C@@H]1C(=O)N[C@@H](Cc1ccc3ccccc3c1)C(=O)N[C@H](c1nc(=S)o[nH]1)Cc1ccc(cc1)OCc1cn2nn1)C(C)(C)C [Example 17] | 0.8 nM | 3.2 nM
CN[C@@H](C)C(=O)N[C@H](C(=O)N1CC[C@@H]2[C@H]1C(=O)N[C@@H](Cc1ccc3ccccc3c1)C(=O)N[C@H](C(=O)O)Cc1ccc(cc1)OCc1cn(nn1)[C@@H]1CCN(C(=O)[C@@H](NC(=O)[C@H](C)NC)C(C)(C)C)[C@@H]1C(=O)N[C@@H](Cc1ccc3ccccc3c1)C(=O)N[C@H](c1nnn[nH]1)Cc1ccc(cc1)OCc1cn2nn1)C(C)(C)C (single isomer, unassigned) [Example 16] | 2.2 nM | 4.4 nM
CN[C@@H](C)C(=O)N[C@H](C(=O)N1CC[C@@H]2[C@H]1C(=O)N[C@@H](Cc1ccc3ccccc3c1)C(=O)N[C@H](C(=O)O)Cc1ccc(cc1)OCc1cn(nn1)[C@@H]1CCN(C(=O)[C@@H](NC(=O)[C@H](C)NC)C(C)(C)C)[C@@H]1C(=O)N[C@@H](Cc1ccc3ccccc3c1)C(=O)N[C@H](C(=O)O)c1ccc(cc1)OCc1cn2nn1)C(C)(C)C [Example 1] | 1.1 nM | 4.9 nM
CN[C@@H](C)C(=O)N[C@H](C(=O)N1CC[C@@H]2[C@H]1C(=O)N[C@@H](Cc1ccc3ccccc3c1)C(=O)N[C@H](C(=O)O)Cc1ccc(cc1)OCc1cn(nn1)[C@@H]1CCN(C(=O)[C@@H](NC(=O)[C@H](C)NC)C(C)(C)C)[C@@H]1C(=O)N[C@@H](Cc1ccc3ccccc3c1)C(=O)N[C@H](c1nc(=S)o[nH]1)Cc1ccc(cc1)OCc1cn2nn1)C(C)(C)C [Example 18] | 2.2 nM | –
